Earlier results, collected in publication PMC11094875, “Cholecystokinin B receptor agonists alleviates anterograde amnesia in cholecystokinin-deficient and aged Alzheimer's disease mice” (Alzheimer's Research & Therapy, 2024).
Where two headings read alike, the source gives them in different places.

Legend:
[1] = human plasm ref 31
[2] = rat plasm ref 31
[3] = as stated in the MWM method for the dosing schedule; no reference given

- half-life [1]: 13 min
- half-life [2]: < 1 min
- half-life [3]: less than 5 min
Structure (SMILES): CSCC[C@H](NC(=O)[C@@H](N)Cc1c[nH]c2ccccc12)C(=O)N[C@@H](CC(=O)O)C(=O)N[C@@H](Cc1ccccc1)C(N)=O [CCK-4, CCK tetrapeptide]
